Data as given in US11718604B2, “4-amino-6-(1,3-benzodioxole)picolinates and their use as herbicides” (Dow AgroSciences LLC, priority 2018, dated 2023).

Tests used:
Type in all cases: in vivo
[1] = system: SETFA: giant foxtail (Setaria faberi); experiment: Post-emergent herbicidal test, giant foxtail; details: post-emergence, 336 h, 14 days after application, read-out: Visual Growth Reduction (%) 14 Days After Application SETFA; for pest or weed control at 17.5 g/ha: 17.5 g ai/ha; for pest or weed control at 35 g/ha: 35 g ai/ha; for pest or weed control at 70 g/ha: 70 g ai/ha; for pest or weed control at 140 g/ha: 140 g ai/ha
Summary of the method: (§1)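 Post-emergence foliar spray, 187 L/ha, 1st–2nd true leaf plants; vehicle acetone/DMSO/IPA/water + Atplus 411F + Triton X-155; solvent-blank controls; subirrigated; 14 d greenhouse, visual % injury.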

[2] = system: EPHHL: wild poinsettia (Euphorbia heterophylla); experiment: Post-emergent herbicidal test, wild poinsettia; details: post-emergence, 336 h, 14 days after application, read-out: Visual Growth Reduction (%) 14 Days After Application EPHHL; for pest or weed control at 17.5 g/ha: 17.5 g ai/ha; for pest or weed control at 35 g/ha: 35 g ai/ha; for pest or weed control at 70 g/ha: 70 g ai/ha; for pest or weed control at 140 g/ha: 140 g ai/ha
Summary of the method: as §1

[3] = system: IPOHE: ivyleaf morningglory (Ipomoea hederacea); experiment: Post-emergent herbicidal test, ivyleaf morningglory; details: post-emergence, 336 h, 14 days after application, read-out: Visual Growth Reduction (%) 14 Days After Application IPOHE; for pest or weed control at 17.5 g/ha: 17.5 g ai/ha; for pest or weed control at 35 g/ha: 35 g ai/ha; for pest or weed control at 70 g/ha: 70 g ai/ha; for pest or weed control at 140 g/ha: 140 g ai/ha
Summary of the method: as §1

[4] = system: ECHCG: barnyardgrass (Echinochloa crus-galli); experiment: Post-emergent herbicidal test, barnyardgrass; details: post-emergence, 336 h, 14 days after application, read-out: Visual Growth Reduction (%) 14 Days After Application ECHCG; for pest or weed control at 17.5 g/ha: 17.5 g ai/ha; for pest or weed control at 35 g/ha: 35 g ai/ha; for pest or weed control at 70 g/ha: 70 g ai/ha; for pest or weed control at 140 g/ha: 140 g ai/ha
Summary of the method: as §1

[5] = system: CIRAR: Canada thistle (Cirsium arvense); experiment: Post-emergent herbicidal test, Canada thistle; details: post-emergence, 336 h, 14 days after application, read-out: Visual Growth Reduction (%) 14 Days After Application CIRAR; for pest or weed control at 17.5 g/ha: 17.5 g ai/ha; for pest or weed control at 35 g/ha: 35 g ai/ha; for pest or weed control at 70 g/ha: 70 g ai/ha; for pest or weed control at 140 g/ha: 140 g ai/ha
Summary of the method: as §1

[6] = system: VIOTR: wild violet (Viola tricolor); experiment: Post-emergent herbicidal test, wild violet; details: post-emergence, 336 h, 14 days after application, read-out: Visual Growth Reduction (%) 14 Days After Application VIOTR; for pest or weed control at 17.5 g/ha: 17.5 g ai/ha; for pest or weed control at 35 g/ha: 35 g ai/ha; for pest or weed control at 70 g/ha: 70 g ai/ha; for pest or weed control at 140 g/ha: 140 g ai/ha
Summary of the method: as §1

[7] = system: SORVU: shattercane (Sorghum bicolor); experiment: Post-emergent herbicidal test, shattercane; details: post-emergence, 336 h, 14 days after application, read-out: Visual Growth Reduction (%) 14 Days After Application SORVU; for pest or weed control at 17.5 g/ha: 17.5 g ai/ha; for pest or weed control at 35 g/ha: 35 g ai/ha; for pest or weed control at 70 g/ha: 70 g ai/ha; for pest or weed control at 140 g/ha: 140 g ai/ha
Summary of the method: as §1

[8] = system: DIGSA: large crabgrass (Digitaria sanguinalis); experiment: Post-emergent herbicidal test, large crabgrass; details: post-emergence, 336 h, 14 days after application, read-out: Visual Growth Reduction (%) 14 Days After Application DIGSA; for pest or weed control at 17.5 g/ha: 17.5 g ai/ha; for pest or weed control at 35 g/ha: 35 g ai/ha; for pest or weed control at 70 g/ha: 70 g ai/ha; for pest or weed control at 140 g/ha: 140 g ai/ha
Summary of the method: as §1

[9] = system: CYPES: yellow nutsedge (Cyperus esculentus); experiment: Post-emergent herbicidal test, yellow nutsedge; details: post-emergence, 336 h, 14 days after application, read-out: Visual Growth Reduction (%) 14 Days After Application CYPES; for pest or weed control at 17.5 g/ha: 17.5 g ai/ha; for pest or weed control at 35 g/ha: 35 g ai/ha; for pest or weed control at 70 g/ha: 70 g ai/ha; for pest or weed control at 140 g/ha: 140 g ai/ha
Summary of the method: as §1

[10] = system: BRSNN: oilseed rape, canola (Brassica napus); experiment: Post-emergent herbicidal test, oilseed rape; details: post-emergence, 336 h, 14 days after application, read-out: Visual Growth Reduction (%) 14 Days After Application BRSNN; for pest or weed control at 17.5 g/ha: 17.5 g ai/ha; for pest or weed control at 35 g/ha: 35 g ai/ha; for pest or weed control at 70 g/ha: 70 g ai/ha; for pest or weed control at 140 g/ha: 140 g ai/ha
Summary of the method: as §1

[11] = system: ABUTH: velvetleaf (Abutilon theophrasti); experiment: Post-emergent herbicidal test, velvetleaf; details: post-emergence, 336 h, 14 days after application, read-out: Visual Growth Reduction (%) 14 Days After Application ABUTH; for pest or weed control at 17.5 g/ha: 17.5 g ai/ha; for pest or weed control at 35 g/ha: 35 g ai/ha; for pest or weed control at 70 g/ha: 70 g ai/ha; for pest or weed control at 140 g/ha: 140 g ai/ha
Summary of the method: as §1

Q: With `Nc1c(F)c(-c2ccc(Cl)c3c2OC(F)(F)O3)nc(C(=O)O)c1Cl` [Compound 14] as the compound, how does the pest or weed control at 17.5 g/ha [1] read?
A: 0%

Q: What about the pest or weed control at 35 g/ha [1] of the same compound?
A: 0%

Q: And the pest or weed control at 70 g/ha [1]?
A: 0%

Q: What about the pest or weed control at 140 g/ha [1] of the same compound?
A: 0%

Q: And the pest or weed control at 17.5 g/ha [2]?
A: 0%

Q: And the pest or weed control at 35 g/ha [2]?
A: 0%

Q: What about the pest or weed control at 70 g/ha [2] of the same compound?
A: 0%

Q: What about the pest or weed control at 140 g/ha [2] of the same compound?
A: 10%

Q: What about the pest or weed control at 17.5 g/ha [3] of the same compound?
A: 3%

Q: And the pest or weed control at 35 g/ha [3]?
A: 3%

Q: What about the pest or weed control at 70 g/ha [3] of the same compound?
A: 8%

Q: And the pest or weed control at 140 g/ha [3]?
A: 13%

Q: What about the pest or weed control at 17.5 g/ha [4] of the same compound?
A: 0%

Q: And the pest or weed control at 35 g/ha [4]?
A: 0%

Q: What about the pest or weed control at 70 g/ha [4] of the same compound?
A: 0%

Q: And the pest or weed control at 140 g/ha [4]?
A: 5%

Q: And the pest or weed control at 17.5 g/ha [5]?
A: 78%

Q: And the pest or weed control at 35 g/ha [5]?
A: 83%

Q: And the pest or weed control at 70 g/ha [5]?
A: 85%

Q: And the pest or weed control at 140 g/ha [5]?
A: 90%

Q: What about the pest or weed control at 17.5 g/ha [6] of the same compound?
A: 5%

Q: And the pest or weed control at 35 g/ha [6]?
A: 13%

Q: What about the pest or weed control at 70 g/ha [6] of the same compound?
A: 43%

Q: What about the pest or weed control at 140 g/ha [6] of the same compound?
A: 58%

Q: And the pest or weed control at 17.5 g/ha [7]?
A: 0%

Q: And the pest or weed control at 35 g/ha [7]?
A: 3%

Q: What about the pest or weed control at 70 g/ha [7] of the same compound?
A: 13%

Q: What about the pest or weed control at 140 g/ha [7] of the same compound?
A: 30%

Q: And the pest or weed control at 17.5 g/ha [8]?
A: 0%

Q: What about the pest or weed control at 35 g/ha [8] of the same compound?
A: 0%

Q: What about the pest or weed control at 70 g/ha [8] of the same compound?
A: 0%

Q: And the pest or weed control at 140 g/ha [8]?
A: 5%

Q: And the pest or weed control at 17.5 g/ha [9]?
A: 0%

Q: And the pest or weed control at 35 g/ha [9]?
A: 10%

Q: And the pest or weed control at 70 g/ha [9]?
A: 30%

Q: And the pest or weed control at 140 g/ha [9]?
A: 50%

Q: And the pest or weed control at 17.5 g/ha [10]?
A: 90%

Q: And the pest or weed control at 35 g/ha [10]?
A: 95%

Q: What about the pest or weed control at 70 g/ha [10] of the same compound?
A: 98%

Q: And the pest or weed control at 140 g/ha [10]?
A: 100%

Q: What about the pest or weed control at 17.5 g/ha [11] of the same compound?
A: 43%

Q: What about the pest or weed control at 35 g/ha [11] of the same compound?
A: 53%

Q: What about the pest or weed control at 70 g/ha [11] of the same compound?
A: 73%

Q: And the pest or weed control at 140 g/ha [11]?
A: 80%

Q: With `COC(=O)c1nc(-c2cccc3c2OC(F)(F)O3)c(F)c(N)c1Cl` [Compound 4] as the compound, how does the pest or weed control at 17.5 g/ha [1] read?
A: 0%

Q: What about the pest or weed control at 35 g/ha [1] of the same compound?
A: 0%

Q: What about the pest or weed control at 70 g/ha [1] of the same compound?
A: 0%

Q: What about the pest or weed control at 140 g/ha [1] of the same compound?
A: 0%

Q: And the pest or weed control at 17.5 g/ha [2]?
A: 0%

Q: What about the pest or weed control at 35 g/ha [2] of the same compound?
A: 0%

Q: And the pest or weed control at 70 g/ha [2]?
A: 0%

Q: And the pest or weed control at 140 g/ha [2]?
A: 0%

Q: What about the pest or weed control at 17.5 g/ha [3] of the same compound?
A: 0%

Q: And the pest or weed control at 35 g/ha [3]?
A: 10%

Q: What about the pest or weed control at 70 g/ha [3] of the same compound?
A: 10%

Q: What about the pest or weed control at 140 g/ha [3] of the same compound?
A: 30%

Q: What about the pest or weed control at 17.5 g/ha [4] of the same compound?
A: 0%

Q: And the pest or weed control at 35 g/ha [4]?
A: 0%

Q: What about the pest or weed control at 70 g/ha [4] of the same compound?
A: 0%

Q: What about the pest or weed control at 140 g/ha [4] of the same compound?
A: 0%

Q: What about the pest or weed control at 17.5 g/ha [5] of the same compound?
A: 80%

Q: And the pest or weed control at 35 g/ha [5]?
A: 90%

Q: And the pest or weed control at 70 g/ha [5]?
A: 95%

Q: And the pest or weed control at 140 g/ha [5]?
A: 90%

Q: And the pest or weed control at 17.5 g/ha [6]?
A: 0%

Q: What about the pest or weed control at 35 g/ha [6] of the same compound?
A: 0%

Q: What about the pest or weed control at 70 g/ha [6] of the same compound?
A: 20%

Q: What about the pest or weed control at 140 g/ha [6] of the same compound?
A: 35%

Q: And the pest or weed control at 17.5 g/ha [7]?
A: 0%

Q: What about the pest or weed control at 35 g/ha [7] of the same compound?
A: 0%

Q: And the pest or weed control at 70 g/ha [7]?
A: 0%

Q: And the pest or weed control at 140 g/ha [7]?
A: 0%

Q: And the pest or weed control at 17.5 g/ha [8]?
A: 0%

Q: What about the pest or weed control at 35 g/ha [8] of the same compound?
A: 0%

Q: And the pest or weed control at 70 g/ha [8]?
A: 0%

Q: What about the pest or weed control at 140 g/ha [8] of the same compound?
A: 0%

Q: And the pest or weed control at 17.5 g/ha [9]?
A: 0%

Q: And the pest or weed control at 35 g/ha [9]?
A: 20%

Q: What about the pest or weed control at 70 g/ha [9] of the same compound?
A: 50%

Q: What about the pest or weed control at 140 g/ha [9] of the same compound?
A: 50%

Q: And the pest or weed control at 17.5 g/ha [10]?
A: 85%

Q: What about the pest or weed control at 35 g/ha [10] of the same compound?
A: 90%

Q: And the pest or weed control at 70 g/ha [10]?
A: 95%

Q: And the pest or weed control at 140 g/ha [10]?
A: 95%

Q: And the pest or weed control at 17.5 g/ha [11]?
A: 70%

Q: And the pest or weed control at 35 g/ha [11]?
A: 80%

Q: What about the pest or weed control at 70 g/ha [11] of the same compound?
A: 80%

Q: What about the pest or weed control at 140 g/ha [11] of the same compound?
A: 85%
